In one assay the test system is A. niger. As to the kind of experiment: Antimicrobial test, broth dilution method (MIC). The assay is classed as cell-based. Conditions: single compounds of Comparative Examples. As for the experimental part:
(§1) The antimicrobial activity of the test solution was measured using a broth dilution method. The concentration of the test solution that was treated was diluted from the highest concentration of 5% to the lowest concentration of 0.0001%. The test solution was cultured in the presence of the strain and then the turbidity of the tube was determined. […] After the primary test described as above, the concentration of the test solution that was treated was further subdivided and a secondary test was conducted to obtain an accurate minimum inhibitory concentration (MIC).
(§2) Test strains E. coli, S. aureus, and P. aeruginosa were inoculated into tryptic soy broth and incubated at 35±2° C. for 16 to 24 hours. C. albicans was inoculated into Sabouraud dextrose broth and cultured at 35° C. for 24 hours. A. niger was seeded on potato dextrose agar and cultured at (25±1°) C for 7 days, sterile physiological saline was dispensed into a solid medium on which the bacteria grew, and spores were removed using a spreader and then diluted in sterile physiological saline.
(§3) A liquid medium was put into the tube and the concentration of the test solution that was treated was diluted from the highest concentration of 5% to the lowest concentration of 0.0001%. The liquid media used for E. coli, S. aureus, and P. aeruginosa (bacteria) were tryptic soy broth, and the liquid media used for C. albicans, and A. niger (fungi) were Sabouraud dextrose broth.
(§4) E. coli, S. aureus, and P. aeruginosa of the strains were inoculated at a concentration of 1×10^5 CFU/mL in the test tube. The tubes treated with the test solution were incubated at 35±2° C. for 16 to 24 hours. C. albicans and A. niger were inoculated at a concentration of 1×10^4 CFU/mL in the test tube. After treatment with the test solution was completed, C. albicans was cultured at 35° C. for 24 to 48 hours and A. niger was cultured at 25° C. for 46 to 50 hours. A medium tube, to which the bacterial solution was not added, was used as a negative control, and a tube containing the medium inoculated with only the bacterial solution without the test solution was used as a growth control. In addition, in order to determine the antimicrobial activity of dipropylene glycol itself used as a solvent, the MIC of the test bacteria for the solvent was measured under the same conditions as in the sample.
(In general: Broth dilution looks for growth in wells or tubes with falling amounts of substance.)
`CCCCCCOCC(O)CO` (centres unmarked) [Comparative Example 5, Hexyl glycerin]: the “minimum inhibitory concentration (MIC), A. niger” value was determined as 0.32%.
In the case of `CC(=O)c1ccc(O)cc1` [Comparative Example 13, 4-hydroxy acetophenone], the “minimum inhibitory concentration (MIC), A. niger” value came to 0.5%.
Consider `COc1ccccc1/C=C/C=O` [Comparative Example 10, 2-methoxycinnamaldehyde], for which the “minimum inhibitory concentration (MIC), A. niger” value is recorded as 0.005%.
On the same count and under the same terms, as for Citric acid [Comparative Example 21], the figure is 0.2%.
Same read-out and setting: as for `CCCCCCCCC(O)CO` (centres unmarked) [Comparative Example 4, Decane-1,2-diol], the figure is 0.006%; as for `OCCOc1ccccc1` [Comparative Example 15, Phenoxy EtOH], 0.12%.
In the case of Disodium EDTA [Comparative Example 23], the “minimum inhibitory concentration (MIC), A. niger” value is 0.15%.
Same read-out and setting: as for `O=C/C=C/c1ccccc1` [Comparative Example 9, Cinnamaldehyde], the figure is 0.03%.
On the same count and under the same terms, as for `CCCCCCCC(=O)NO` [Comparative Example 17, Caprylhydroxamic acid], the figure is 0.02%.
On the same count and under the same terms, as for `O=C([O-])c1ccccc1.[Na+]` [Comparative Example 14, Sodium benzoate], the figure is 0.1%.

The subject of the next assay is C. albicans. Put plainly: Antimicrobial test, broth dilution method (MIC). Type of assay: cell-based. Conditions: single compounds of Comparative Examples. As for the experimental part: as §1, §2, §3, §4
Consider `CCCCCCOCC(O)CO` (centres unmarked) [Comparative Example 5, Hexyl glycerin], for which the “minimum inhibitory concentration (MIC), C. albicans” value was 0.64%.
Same read-out and setting: with `CC(=O)c1ccc(O)cc1` [Comparative Example 13, 4-hydroxy acetophenone] the figure was 0.1%; with `COc1ccccc1/C=C/C=O` [Comparative Example 10, 2-methoxycinnamaldehyde], 0.005%; with Citric acid [Comparative Example 21], 0.05%.
On to `CCCCCCCCC(O)CO` (centres unmarked) [Comparative Example 4, Decane-1,2-diol], for which the “minimum inhibitory concentration (MIC), C. albicans” value turned out to be 0.011%.
Take `OCCOc1ccccc1` [Comparative Example 15, Phenoxy EtOH]: the “minimum inhibitory concentration (MIC), C. albicans” value was 0.12%.
Take Disodium EDTA [Comparative Example 23]: the “minimum inhibitory concentration (MIC), C. albicans” value is recorded as 0.05%.
For `O=C/C=C/c1ccccc1` [Comparative Example 9, Cinnamaldehyde], the “minimum inhibitory concentration (MIC), C. albicans” value is on record as 0.02%.
As to `CCCCCCCC(=O)NO` [Comparative Example 17, Caprylhydroxamic acid], the “minimum inhibitory concentration (MIC), C. albicans” value is on record as 0.03%.
`O=C([O-])c1ccccc1.[Na+]` [Comparative Example 14, Sodium benzoate]: the “minimum inhibitory concentration (MIC), C. albicans” value worked out at 0.12%.

The test system of the next assay is E. coli. Put plainly: Antimicrobial test, broth dilution method (MIC). Type of assay: cell-based. Conditions: single compounds of Comparative Examples. On the procedure: as §1, §2, §3, §4
Take `CCCCCCOCC(O)CO` (centres unmarked) [Comparative Example 5, Hexyl glycerin]: the “minimum inhibitory concentration (MIC), E. coli” value was 0.2%.
`CC(=O)c1ccc(O)cc1` [Comparative Example 13, 4-hydroxy acetophenone]: the “minimum inhibitory concentration (MIC), E. coli” value turned out to be 0.15%.
As to `COc1ccccc1/C=C/C=O` [Comparative Example 10, 2-methoxycinnamaldehyde], the “minimum inhibitory concentration (MIC), E. coli” value stood at 0.02%.
Still for that read-out and setting: with Citric acid [Comparative Example 21] the figure was 0.1%; with `CCCCCCCCC(O)CO` (centres unmarked) [Comparative Example 4, Decane-1,2-diol], 0.09%.
Still for that read-out and setting: with `OCCOc1ccccc1` [Comparative Example 15, Phenoxy EtOH] the figure was 0.06%; with Disodium EDTA [Comparative Example 23], 0.1%; with `O=C/C=C/c1ccccc1` [Comparative Example 9, Cinnamaldehyde], 0.05%.
As to `CCCCCCCC(=O)NO` [Comparative Example 17, Caprylhydroxamic acid], the “minimum inhibitory concentration (MIC), E. coli” value worked out at 0.06%.
Take `O=C([O-])c1ccccc1.[Na+]` [Comparative Example 14, Sodium benzoate]: the “minimum inhibitory concentration (MIC), E. coli” value was determined as 0.016%.

For the next assay, the system named is P. aeruginosa. Put plainly: Antimicrobial test, broth dilution method (MIC). Type of assay: cell-based. Conditions: single compounds of Comparative Examples. On the procedure:
as §1, §2, §3, §4
Take `CCCCCCOCC(O)CO` (centres unmarked) [Comparative Example 5, Hexyl glycerin]: the “minimum inhibitory concentration (MIC), P. Aeruginosa” value was 0.5%.
As to `CC(=O)c1ccc(O)cc1` [Comparative Example 13, 4-hydroxy acetophenone], the “minimum inhibitory concentration (MIC), P. Aeruginosa” value is 0.1%.
Regarding `COc1ccccc1/C=C/C=O` [Comparative Example 10, 2-methoxycinnamaldehyde], the “minimum inhibitory concentration (MIC), P. Aeruginosa” value turned out to be 0.4%.
On to Citric acid [Comparative Example 21], for which the “minimum inhibitory concentration (MIC), P. Aeruginosa” value is 0.1%.
Regarding `CCCCCCCCC(O)CO` (centres unmarked) [Comparative Example 4, Decane-1,2-diol], the “minimum inhibitory concentration (MIC), P. Aeruginosa” value was 0.045%.
Take `OCCOc1ccccc1` [Comparative Example 15, Phenoxy EtOH]: the “minimum inhibitory concentration (MIC), P. Aeruginosa” value turned out to be 0.09%.
Still for that read-out and setting: as for Disodium EDTA [Comparative Example 23], the figure is 0.15%; as for `O=C/C=C/c1ccccc1` [Comparative Example 9, Cinnamaldehyde], 0.1%.
Still for that read-out and setting: as for `CCCCCCCC(=O)NO` [Comparative Example 17, Caprylhydroxamic acid], the figure is 0.12%.
Same read-out and setting: with `O=C([O-])c1ccccc1.[Na+]` [Comparative Example 14, Sodium benzoate] the figure was 0.016%.

The subject of another assay is S. aureus. As to the kind of experiment: Antimicrobial test, broth dilution method (MIC). The assay is classed as cell-based. Conditions: single compounds of Comparative Examples. On the procedure: as §1, §2, §3, §4
As for `CCCCCCOCC(O)CO` (centres unmarked) [Comparative Example 5, Hexyl glycerin], the “minimum inhibitory concentration (MIC), S. Aureus” value came out at 0.5%.
On the same count and under the same terms, as for `CC(=O)c1ccc(O)cc1` [Comparative Example 13, 4-hydroxy acetophenone], the figure is 0.2%; as for `COc1ccccc1/C=C/C=O` [Comparative Example 10, 2-methoxycinnamaldehyde], 0.02%; as for Citric acid [Comparative Example 21], 0.1%.
`CCCCCCCCC(O)CO` (centres unmarked) [Comparative Example 4, Decane-1,2-diol]: the “minimum inhibitory concentration (MIC), S. Aureus” value is 0.025%.
Same read-out and setting: with `OCCOc1ccccc1` [Comparative Example 15, Phenoxy EtOH] the figure was 0.06%; with Disodium EDTA [Comparative Example 23], 0.1%.
Consider `O=C/C=C/c1ccccc1` [Comparative Example 9, Cinnamaldehyde], for which the “minimum inhibitory concentration (MIC), S. Aureus” value is 0.03%.
Turning to `CCCCCCCC(=O)NO` [Comparative Example 17, Caprylhydroxamic acid], the “minimum inhibitory concentration (MIC), S. Aureus” value is given as 0.06%.
Same read-out and setting: with `O=C([O-])c1ccccc1.[Na+]` [Comparative Example 14, Sodium benzoate] the figure was 0.002%.

Values taken from patent US20240245051A1, “DISINFECTING, ANTIMICROBIAL AND PRESERVATIVE COMPOSITION” (BJBIOCHEM CO., LTD., priority 2021, published 2024).
